The subject of the test is TNFα release from human peripheral blood mononuclear cells. Description: Inhibition of LPS-stimulated TNFα release from human peripheral blood mononuclear cells (TNFα screen, ELISA). Format: cell-based. The settings on record: LPS-stimulated human PBMC, 18 hours incubation, TNFα in supernatant by ELISA. The protocol: Venous blood is collected from healthy volunteers and the mononuclear cells purified by centrifugation through Histopaque (Ficoll) cushions. TNFα production from these cells is stimulated by addition of lipopolysaccharide. After 18 hours incubation in the presence of LPS, the cell supernatant is removed and the concentration of TNFα in the supernatant determined by ELISA.
(An ELISA detects its analyte on a solid surface through an enzyme-linked reagent.)

The term IC50 denotes the concentration needed to halve the response being measured. A high value points to weaker potency. Molecule `COc1ccc2cccnc2c1S(=O)(=O)N[C@H]1CC[C@@H](NC(=O)c2cccnc2OC2CCSCC2)CC1` [Example 29, Syn-N-[4-(7-methoxy-quinoline-8-sulfonylamino)-cyclohexyl]-2-(tetrahydro-thiopyran-4-yloxy)-nicotinamide] gave a half-maximal inhibitory concentration (IC50) of 0.4 nM.
